Values joined by “and” are separate entries in the source; they are usually repeats but may differ in a detail not shown here. Equal values may be shown once.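 How tested: cells in 96-well plates exposed to compound for 48 hours at five concentrations. Abbreviation: GI50, concentration required for 50% inhibition of growth. TGI: concentration producing complete growth inhibition.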
How the values were obtained:
Assay in all cases: NCI tumour cell line growth inhibition, 48 h
NCI/ADR-RES ovarian = test system: NCI/ADR-RES ovarian
UO-31 renal = test system: UO-31 renal
T-47D breast = test system: T-47D breast
SNB-19 CNS = test system: SNB-19 CNS
NCI-H226 lung = test system: NCI-H226 lung
UACC-62 melanoma = test system: UACC-62 melanoma
LOX IMVI melanoma = test system: LOX IMVI melanoma
SNB-75 CNS = test system: SNB-75 CNS
NCI-H460 lung = test system: NCI-H460 lung
IGROV1 ovarian = test system: IGROV1 ovarian

Row | SMILES | TGI (NCI/ADR-RES ovarian) | TGI (UO-31 renal) | TGI (T-47D breast) | TGI (SNB-19 CNS) | TGI (NCI-H226 lung) | TGI (UACC-62 melanoma) | TGI (LOX IMVI melanoma) | TGI (SNB-75 CNS) | TGI (NCI-H460 lung) | TGI (IGROV1 ovarian) | GI50 (NCI/ADR-RES ovarian) | GI50 (UO-31 renal) | GI50 (T-47D breast) | GI50 (SNB-19 CNS) | GI50 (NCI-H226 lung) | GI50 (UACC-62 melanoma) | GI50 (LOX IMVI melanoma) | GI50 (SNB-75 CNS) | GI50 (NCI-H460 lung) | GI50 (IGROV1 ovarian)
1 | CC(=O)NC1C(OCc2ccccc2)OC(CO)C(O)C1OC(C)C(=O)NC(C(=O)NC(CCC(=O)NCCCCNc1c2ccccc2nc2cccc([N+](=O)[O-])c12)C(N)=O)C(C)C (configuration not stated) | > 100 µM | 13.4 µM | > 38.2 µM | 34.5 µM | 12.3 µM | 5.03 µM | 4.68 µM | 10.5 µM | 9.93 µM | 10.4 µM |  |  |  |  |  |  |  |  |  | 
2 | C=CCOn1c(C=C)nc2ccc(C)cc21 | > 100 µM | 27.4 µM | 43.5 µM | 46 µM | 37.5 µM | 26.8 µM | 37.5 µM | 43.4 µM | 32.8 µM | > 100 µM |  |  |  |  |  |  |  |  |  | 
3 | O=C1c2c(O)cccc2-c2nn(CCNCCO)c3ccc(NCCNCCO)c1c23 | > 100 µM | 10.2 µM | 4.61 µM | 0.405 µM | 0.0964 µM | 0.344 µM | 1.68 µM | 1.14 µM | 0.934 µM | 5.8 µM |  |  |  |  |  |  |  |  |  | 
4 | C=C(C)CC1(O[Si](C)(C)C)C(=O)C(OCC)=C1OCC (configuration not stated) | > 100 µM | > 100 µM | > 100 µM | > 100 µM | > 100 µM | > 100 µM | > 100 µM | > 100 µM | > 100 µM | > 100 µM |  |  |  |  |  |  |  |  |  | 
5 | C/C(=N\Nc1nc2cc(C(F)(F)F)ccc2s1)c1ccccn1 | 1.48 µM | 4.89 µM | 15.4 µM | 13.3 µM | 3.31 µM | 3.38 µM | 2.48 µM | 11.3 µM | 22.3 µM | 3.99 µM |  |  |  |  |  |  |  |  |  | 
6 | CC(C)(C)CC(C)(C)c1cc(O)c(O)c(CN2CCCCC2)c1 | 19 µM | 26.1 µM | 33.9 µM | 28.8 µM | 32 µM | 29.8 µM | 24.3 µM | 37.3 µM | 24 µM | 34.6 µM |  |  |  |  |  |  |  |  |  | 
7 | CN1CC2=C(NC(=S)NC2c2ccccc2)/C(=C/c2ccccc2)C1 (configuration not stated) | > 100 µM | > 100 µM | > 100 µM | > 100 µM | > 100 µM | > 100 µM | > 100 µM | > 100 µM | > 100 µM | > 100 µM |  |  |  |  |  |  |  |  |  | 
8 | CCOP(=O)(O)CN1CCNCCN(CP(=O)(O)OCC)CCNCC1 | > 100 µM | > 100 µM | > 100 µM | > 100 µM | > 100 µM | > 100 µM | > 100 µM | > 100 µM | > 100 µM | > 100 µM |  |  |  |  |  |  |  |  |  | 
9 | COc1ccc2[nH]c(O)c(/C=c3/cc4c(c(-c5ccc(F)c(OC)c5)n3)=Nc3ccccc3-4)c2c1 | 11.2 µM | 18.8 µM | 3.78 µM | 11.6 µM | 33.1 µM | 3.16 µM | 3.29 µM | 3.56 µM | 3.41 µM | 17.6 µM | 2.56 µM | 3.86 µM | 1.85 µM | 2.85 µM | 16.4 µM | 1.7 µM | 1.72 µM | 1.56 µM | 1.78 µM | 4.41 µM
10 | O=C1OC[C@H]2[C@@H]1[C@H]1O[C@@H]2C2=C(CCC2)C1=O | > 100 µM | > 100 µM | > 100 µM | > 100 µM | > 100 µM | > 100 µM | > 100 µM | > 100 µM | > 100 µM | > 100 µM |  |  |  |  |  |  |  |  |  | 
11 | Cc1ccc(S(=O)CC(CF)OCn2cc(C)c(=O)[nH]c2=O)cc1 (configuration not stated) | > 100 µM | > 100 µM | > 100 µM | > 100 µM | > 100 µM | > 100 µM | > 100 µM | > 100 µM | > 100 µM | > 100 µM |  |  |  |  |  |  |  |  |  | 
12 | CC1=C2C(=CO[C@H](C)[C@H]2C)C(=O)C(C(=O)O)=C1O | 79.4 µM and 152 µM | 106 µM and 50.6 µM | > 94.5 µM | 55.6 µM and > 67.7 µM | 59.9 µM and 47.4 µM | 85.6 µM and 40.4 µM | 44.7 µM and 53.8 µM | 111 µM and > 62.1 µM | > 90.1 µM and 149 µM | 69.6 µM and 49.4 µM | 26.9 µM | 22.3 µM |  | 27.9 µM | 18.4 µM |  | 20.1 µM | 21.2 µM | 30.1 µM and 73 µM | 
13 | CC(C)=CCNc1nc(Cl)nc2nc[nH]c12 | > 100 µM | > 100 µM | > 100 µM | > 100 µM | > 100 µM | > 100 µM | > 100 µM | > 100 µM | 68.8 µM | > 100 µM |  |  |  |  |  |  |  |  |  | 
14 | C=C=C(CC(CC(=C)Br)(C(=O)OC)C(=O)OC)S(=O)(=O)c1ccccc1 | 5.96 µM | 3.69 µM | > 100 µM | 24.9 µM | 12.2 µM | 3.11 µM | 1.7 µM | 20.5 µM | 20.7 µM | 5.52 µM |  |  |  |  |  |  |  |  |  | 
15 | C/C(=N\Nc1nc2ccccc2n1C)c1cc2ccccc2cn1 | 1.55 µM | 5.03 µM | 5.66 µM | 14.6 µM | 2.22 µM | 0.94 µM | 4.33 µM | 11.8 µM | 7.05 µM | 0.423 µM |  |  |  |  |  |  |  |  |  | 
